Article PMC9293779, “Elucidation of binding preferences of YEATS domains to site-specific acetylated nucleosome core particles” (The Journal of Biological Chemistry, 2022)

How the values were obtained:
[1] = system: GAS41-YEATS; assay: Peptide array-based binding assay, GAS41-YEATS; parameters: species or system human; settings: 10 μM YEATS domain, 4 °C overnight, anti-GST/HRP chemiluminescence
Method: (§1) For the assay using the MODified Histone Peptide Array, the same cDNA sequences encoding human YEATS domains were amplified by PCR and subcloned into a pCR2.1 vector with a GST-encoding sequence inserted after an N-terminal polyhistidine tag. For microscale thermophoresis measurements, a similar construct but without GST was used. Site-directed mutagenesis of AF9-YEATS (residues 1–138) was conducted by PCR using the DpnI restriction enzyme and the following primer sets: 5′-CCTTCACGCATCCTTTCCTCGTCCTAAAC-3′ (forward) and 5′-GGAAAGGATGCGTGAAGGTGAAACACCAC-3′ (reverse) for E57A and 5′-CGACTATGACCTGTTTCTGCATCTCG-3′ (forward) and 5′-GCAGAAACAGTGCATAGTCGAAGCGAAC-3′ (reverse) for D103A. The introduced mutations were verified by DNA sequencing. For X-ray structural analysis, the cDNAs encoding AF9-YEATS (residues 1–138) and YEATS2-YEATS (202–338) were amplified by PCR and subcloned into the pCR2.1 vector encoding GST and the polyhistidine tag. […]
(§2) Assays were performed using the MODified Histone Peptide Array (Active Motif) following the manufacturer’s protocol. […] Protein binding was detected by Chemi-Lumi One Super (Nacalai Tesque). Signal intensities were quantified by using the Protein Array Analyzer for ImageJ (written by Gilles Carpentier, 2010. The macro is available online: http://rsb.info.nih.gov/ij/macros/toolsets/Protein Array Analyzer.txt).

[2] = target: T1, AF9-YEATS (Homo sapiens, UniProt P42568); assay: Peptide array-based binding assay, AF9-YEATS; settings: 10 μM YEATS domain, 4 °C overnight, anti-GST/HRP chemiluminescence
T1 construct: For ITC experiments, the cDNAs encoding AF9-YEATS (residues 1–138) and YEATS2-YEATS (200–349) were inserted into the same vector; polyhistidine tag (N); GST (N); made in house
T1 sequence (P42568 1-138): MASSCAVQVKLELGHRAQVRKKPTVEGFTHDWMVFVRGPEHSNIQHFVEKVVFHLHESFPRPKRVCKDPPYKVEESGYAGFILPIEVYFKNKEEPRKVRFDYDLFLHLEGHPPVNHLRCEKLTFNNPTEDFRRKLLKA
Method: as §1, §2

[3] = system: ENL-YEATS; assay: Peptide array-based binding assay, ENL-YEATS; parameters: species or system human; settings: 10 μM YEATS domain, 4 °C overnight, anti-GST/HRP chemiluminescence
Method: as §1, §2

[4] = target: YEATS2-YEATS; parameters: method as in 2 sources, one per row (each row's own in cited_ref): ref 50 = [50]; PMID 27103431; doi:10.1038/cr.2016.49; 50 Zhao D. Guan H. Zhao S. Mi W. Wen H. Li Y. YEATS2 is a selective histone crotonylation reader Cell Res. 26 2016 629 632 27103431 10.1038/cr.2016.49 PMC4856769 ||| ref 31 = [31]; PMID 29057918; doi:10.1038/s41467-017-01173-4; 31 Mi W. Guan H. Lyu J. Zhao D. Xi Y. Jiang S. YEATS2 links histone acetylation to tumorigenesis of non-small cell lung cancer Nat. Commun. 8 2017 1088 29057918 10.1038/s41467-017-01173-4 PMC5651844; settings: cited from earlier work
[5] = system: HDAC6; settings: 1 μM TSA, preincubated 37 °C 1 h, NCP monoacetylated at H4 K5, K8, K12 or K16, 16 h, dot blot
Method: First, we examined whether the reconstituted NCP with Kac is functional as a substrate for lysine deacetylases (KDACs) in vitro. We tested activity of histone deacetylase 6 (HDAC6) toward NCP-containing H4 with K5ac, K8ac, K12ac, or K16ac. […] Subsequently, we examined whether a HDAC-specific inhibitor, trichostatin A (TSA), inhibits deacetylation of Kac-containing NCPs.
The NCPs for deacetylation assays were reconstituted using unmodified H2B. In each deacetylation reaction, 200 ng of the Kac-containing NCP was incubated with 50, 100, 200, or 400 ng of HDAC6 (SignalChem; cat. no. H88-30 G) in 20 μl at 37 °C for 16 h. In the inhibitor assays, TSA was added to the reaction mixture not containing NCP to a final concentration of 1 μM and preincubated at 37 °C for 1 h; NCP monoacetylated either at K5, K8, K12, or K16 of H4 was then added. After the reactions, samples were spotted on a nitrocellulose membrane (BioTrace NT Nitrocellulose Transfer Membrane, 0.2 μm, Pall Corporation, cat. no. 66485) and immunoblotted using H4-specific antibodies, each recognizing acetylation at K5, K8, K12, or K16.

H4 (1–19) tail peptide diacetylated at K5/K8: peptide on MODified Histone Peptide Array (SGRGKGGKGLGKGGAKRHR; K5 and K8 acetylation; UniProt P62805 2-20, looked up, fragment)
binding on MODified Histone Peptide Array [1]: bound
binding on MODified Histone Peptide Array [2]: bound
binding on MODified Histone Peptide Array [3]: bound

K27-crotonylated H3 (1–34) peptide: K27-crotonylated H3 (1–34) peptide of ref 50
Kd [4]: 31.7 µM

trichostatin A [TSA]
inhibition of deacetylation by HDAC6 [5]: inhibited deacetylation of all four Kac residues by HDAC6
